Starred links: 1 amine or outer side, 2 acyl side, 3 side chain; linkers in the order of their positions; H or OH if unused. Positions of bridges follow the written chain, without caps; N, C: chain ends. Non-standard residues stand in square brackets, D forms with d. Residues, ends and D or L forms follow the SMILES beside them. *: point of attachment. X8 = CC(=O)NC(C(=O)OC(C(C)C)C(N[*:1])C(=O)[*:2])C(O)C(C)C; X2 = CSCC(O)C(NC(C)=O)C(=O)OC(C(C)C)C(N[*:1])C(=O)[*:2]; X3 = CC(C)C(O[*:3])C(N[*:1])C(=O)[*:2]; X7 = O=C(C(Cc1ccccc1F)O[*:1])[*:2]; X4 = CCCC(=O)NC(C(=O)*)C(O)C(C)C; X5 = CSCC(=O)NC(C(=O)*)C(O)C(C)C; X6 = CCC(=O)NC(C(=O)*)C(O)C(C)C; PhLac = O=C(O)[CH](O)Cc1ccccc1; NMeT = CN[CH](C(=O)O)[CH](C)O; NMeA = CN[CH](C)C(=O)O; NMeDha = C=C(NC)C(=O)O
Tested on: Gq/11
Experiment: Inhibitory action on Gq/11: LTD4-induced cellular Ca2+ change in CHO cells stably expressing CysLTR2 (FLIPR)
Assay type: cell-based
Details: 10 nM LTD4, maximum Fluo-4 fluorescence intensity, read-out: Gq/11 inhibitory activities (IC50 values)
Procedure: The test was carried out according to the method of Non-Patent Citation 3, using a leukotriene receptor CysLTR2 (cysteinyl leukotriene receptor 2), which is known to activate Gq/11. CHO cells stably expressing CysLTR2 were seeded on a 96-well black/clear bottom plate (manufactured by Becton, Dickinson and Company) at 20,000 cells per well, and after 24 hours of seeding, the medium was discarded. Then, Hanks BSS (GIBCO Inc.) including 2 μM Fluo-4, AM (manufactured by Molecular Probe Co.), 0.004% pluronic acid, 1% FBS, 20 mM HEPES, and 2.5 mM probenecid was added thereto at 100 μL per well, followed by incubation at 37° C. for 1 hour. After incubation, the resultant was washed four times with Hanks BSS including 20 mM HEPES, and Hanks BSS including 20 mm HEPES per well was added thereto 100 μL per well. In addition, 50 μL of a test compound that had been diluted with Hanks BSS including 20 mM HEPES to a final concentration from 1×10^−10 M to 1×10^−5 M was added thereto, followed by being left to stand at room temperature for 30 minutes. The change of cellular Ca^2+ concentration after addition of leukotriene D4 (LTD4, manufactured by Cayman Co.), which is a CysLTR2 ligand, was measured over time using an FLIPR (Molecular Device Corp.). 50 μL it of leukotriene D4 that had been diluted with Hanks BSS including 20 mM HEPES to a final concentration of 10 nM at 10 seconds after the initiation of measurement was added thereto, fluorescence intensities were measured every second for 50 seconds and every sixth second for 2 minutes, and a maximum fluorescence intensity during a measurement time of 3 minutes was observed. By plotting the concentrations and the fluorescence intensities of the test compounds, the IC50 values were calculated, which were taken as Gq/11 inhibitory activities.

Question: For `C=C1C(=O)NC(C)C(=O)N(C)C(C)C(=O)NC(C(OC(=O)C(NC(C)=O)C(O)C(C)C)C(C)C)C(=O)N(C)C(C(C)OC)C(=O)OC(C)C(NC(C)=O)C(=O)OC(Cc2ccccc2F)C(=O)N1C` (centres unmarked) [Ref 5] (Ac-T[X7][NMeDha]A[NMeA][X8][NMeT](Me); ester 1-C; configuration not given here), which IC50 is on record?
Answer: Its IC50 is 25 nM.

Same assay, conditions: read-out: Gq/11 inhibitory activities (IC50 values), 10 nM LTD4, maximum Fluo-4 fluorescence intensity

Question: Which IC50 does the source give for `C=C1C(=O)NC(C)C(=O)N(C)C(C)C(=O)NC(C(OC(=O)C(NC(C)=O)C(O)CSC)C(C)C)C(=O)N(C)C(C(C)OC)C(=O)OC(C)C(NC(C)=O)C(=O)OC(Cc2ccccc2)C(=O)N1C` (centres unmarked) [Ex3] (Ac-T[PhLac][NMeDha]A[NMeA][X2][NMeT](Me); ester 1-C; configuration not given here) here?
Answer: The IC50 was 97 nM.

Question: How did the IC50 turn out when `C=C1C(=O)NC(C)C(=O)N(C)C(C)C(=O)NC(C(OC(=O)C(NC(=O)CC)C(O)C(C)C)C(C)C)C(=O)N(C)C(C(C)OC)C(=O)OC(C)C(NC(C)=O)C(=O)OC(Cc2ccccc2)C(=O)N1C` (centres unmarked) [Ref 2] (Ac-T[PhLac][NMeDha]A[NMeA][X3](X6)[NMeT](Me); ester 1-C; configuration not given here) was run?
Answer: The IC50 was 34 nM.

Question: How did the IC50 turn out when `C=C1C(=O)NC(C)C(=O)N(C)C(C)C(=O)NC(C(OC(=O)C(NC(C)=O)C(O)CSC)C(C)C)C(=O)N(C)C(C(C)OC)C(=O)OC(C)C(NC(C)=O)C(=O)OC(Cc2ccccc2)C(=O)N1C` (centres unmarked) [Ex4] (Ac-T[PhLac][NMeDha]A[NMeA][X2][NMeT](Me); ester 1-C; configuration not given here) was run?
Answer: Its IC50 is 365 nM.

Question: How did the IC50 turn out when `C=C1C(=O)NC(C)C(=O)N(C)C(C)C(=O)NC(C(OC(=O)C(NC(=O)CSC)C(O)C(C)C)C(C)C)C(=O)N(C)C(C(C)OC)C(=O)OC(C)C(NC(C)=O)C(=O)OC(Cc2ccccc2)C(=O)N1C` (centres unmarked) [Ref 3] (Ac-T[PhLac][NMeDha]A[NMeA][X3](X5)[NMeT](Me); ester 1-C; configuration not given here) was run?
Answer: The IC50 was 56 nM.

Question: `COC(C)C1C(=O)OC(C)C(NC(C)=O)C(=O)OC(Cc2ccccc2)C(=O)N(C)C(C)C(=O)NC(C)C(=O)N(C)C(C)C(=O)NC(C(OC(=O)C(NC(C)=O)C(O)C(C)C)C(C)C)C(=O)N1C` (centres unmarked) [Ref 7] (Ac-T[PhLac][NMeA]A[NMeA][X8][NMeT](Me); ester 1-C; configuration not given here) was tested. Which IC50 did it give?
Answer: The IC50 was 32 nM.

Question: With `C=C1C(=O)NC(C)C(=O)N(C)C(C)C(=O)NC(C(OC(=O)C(NC(=O)CCC)C(O)C(C)C)C(C)C)C(=O)N(C)C(C(C)OC)C(=O)OC(C)C(NC(C)=O)C(=O)OC(Cc2ccccc2)C(=O)N1C` (centres unmarked) [Ex1] (Ac-T[PhLac][NMeDha]A[NMeA][X3](X4)[NMeT](Me); ester 1-C; configuration not given here) as the molecule, how does the IC50 read?
Answer: The IC50 was 31 nM.

Question: For `C=C1C(=O)NC(C)C(=O)N(C)C(C)C(=O)NC(C(OC(=O)C(NC(C)=O)C(O)C(C)C)C(C)C)C(=O)N(C)C(C(C)O)C(=O)OC(C)C(NC(C)=O)C(=O)OC(Cc2ccccc2)C(=O)N1C` (centres unmarked) [Ex2] (Ac-T[PhLac][NMeDha]A[NMeA][X8][NMeT]; ester 1-C; configuration not given here), which IC50 is on record?
Answer: Its IC50 is 317 nM.

Source: patent US20110207655A1, “CYCLIC DEPSIPEPTIDE COMPOUND AND USE THEREOF” (Astellas Pharma Inc., priority 2008, published 2011)
